Biological target: Acetylcholine receptor (Torpedo californica, UniProt P02710+P02712+P02714+P02718)
Test: Compound was evaluated for inhibition of [3H]TCP binding to Nicotinic acetylcholine receptor of Torpedo californica
Assay type: protein-complex assay, Tetronarce californica

Acetylcholine receptor, sequence (P02710 whole entry): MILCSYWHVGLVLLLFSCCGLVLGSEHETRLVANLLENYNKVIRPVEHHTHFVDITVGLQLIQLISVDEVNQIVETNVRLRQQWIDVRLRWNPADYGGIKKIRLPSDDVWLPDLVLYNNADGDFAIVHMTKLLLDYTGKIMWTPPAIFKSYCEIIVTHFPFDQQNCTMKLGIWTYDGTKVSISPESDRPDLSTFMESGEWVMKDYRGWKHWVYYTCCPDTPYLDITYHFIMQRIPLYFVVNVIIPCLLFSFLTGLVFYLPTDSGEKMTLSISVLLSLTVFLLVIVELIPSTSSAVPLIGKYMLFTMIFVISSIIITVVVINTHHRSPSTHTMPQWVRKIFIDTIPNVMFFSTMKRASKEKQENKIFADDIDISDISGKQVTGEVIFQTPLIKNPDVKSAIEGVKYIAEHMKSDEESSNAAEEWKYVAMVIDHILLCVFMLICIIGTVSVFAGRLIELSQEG
Acetylcholine receptor, sequence (P02712 whole entry): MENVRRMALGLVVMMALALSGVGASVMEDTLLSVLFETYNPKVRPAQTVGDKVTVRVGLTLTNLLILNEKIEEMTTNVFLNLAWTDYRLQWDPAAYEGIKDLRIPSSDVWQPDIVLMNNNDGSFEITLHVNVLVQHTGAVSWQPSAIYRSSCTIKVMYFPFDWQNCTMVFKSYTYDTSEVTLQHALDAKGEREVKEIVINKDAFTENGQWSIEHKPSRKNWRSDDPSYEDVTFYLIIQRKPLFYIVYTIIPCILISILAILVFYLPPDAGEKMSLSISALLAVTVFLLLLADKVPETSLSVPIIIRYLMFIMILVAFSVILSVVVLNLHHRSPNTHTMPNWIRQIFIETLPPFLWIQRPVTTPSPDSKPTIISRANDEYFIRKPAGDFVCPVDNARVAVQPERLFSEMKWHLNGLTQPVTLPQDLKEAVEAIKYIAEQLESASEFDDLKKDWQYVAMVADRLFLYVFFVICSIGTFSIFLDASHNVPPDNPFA
Acetylcholine receptor, sequence (P02718 whole entry): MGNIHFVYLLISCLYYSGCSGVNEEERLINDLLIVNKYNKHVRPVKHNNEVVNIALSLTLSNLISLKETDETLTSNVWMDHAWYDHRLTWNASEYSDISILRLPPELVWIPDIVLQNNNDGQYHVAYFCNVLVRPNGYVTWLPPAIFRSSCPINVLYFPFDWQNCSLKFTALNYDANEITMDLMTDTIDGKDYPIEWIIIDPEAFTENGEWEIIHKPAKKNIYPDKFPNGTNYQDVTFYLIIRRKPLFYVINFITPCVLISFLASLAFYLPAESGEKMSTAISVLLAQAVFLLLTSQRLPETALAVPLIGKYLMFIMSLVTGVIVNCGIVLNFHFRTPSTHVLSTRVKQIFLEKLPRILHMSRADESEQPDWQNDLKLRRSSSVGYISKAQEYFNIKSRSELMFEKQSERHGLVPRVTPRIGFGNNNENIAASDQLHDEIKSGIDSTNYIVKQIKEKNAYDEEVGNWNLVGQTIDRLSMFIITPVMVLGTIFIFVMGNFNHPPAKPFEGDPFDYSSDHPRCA
Acetylcholine receptor, sequence (P02714 whole entry): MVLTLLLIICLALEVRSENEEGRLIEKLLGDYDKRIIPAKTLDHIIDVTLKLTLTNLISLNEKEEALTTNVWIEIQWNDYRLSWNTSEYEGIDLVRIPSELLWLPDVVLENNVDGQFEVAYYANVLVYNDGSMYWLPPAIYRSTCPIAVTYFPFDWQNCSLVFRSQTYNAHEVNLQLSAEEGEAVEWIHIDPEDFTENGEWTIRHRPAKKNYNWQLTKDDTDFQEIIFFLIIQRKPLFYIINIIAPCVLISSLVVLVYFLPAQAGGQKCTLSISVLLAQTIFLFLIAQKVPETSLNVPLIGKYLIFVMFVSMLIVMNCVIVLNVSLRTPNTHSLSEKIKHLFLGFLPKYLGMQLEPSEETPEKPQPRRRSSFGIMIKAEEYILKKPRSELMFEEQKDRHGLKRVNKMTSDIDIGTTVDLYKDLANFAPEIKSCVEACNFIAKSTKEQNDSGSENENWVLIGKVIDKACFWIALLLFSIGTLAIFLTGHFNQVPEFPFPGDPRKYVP

Row | Structure (SMILES) | Ki
1 | CCC[C@H]1CC[C@@H]2CC[C@@H](CCCCC[C@H](C)O)N21 | 3.1 mM
2 | C[C@@H](O)CCCCC[C@@H]1CC[C@H]2CC[C@H](C)N12 | 8.3 mM
3 | CCC[C@H]1CC[C@@H]2CC[C@@H](CCCCC[C@@H](C)O)N21 | 3.1 mM
4 | C[C@H](O)CCCCC[C@@H]1CC[C@H]2CC[C@H](C)N12 | 3.3 mM
5 | CCCC[C@@H]1CCCC2CC[C@@H](CCCC)N21 (stereo partly drawn) | 0.42 mM
6 | CCCCCCC[C@@H]1CC[C@H]2CC[C@H](C)N12 | 0.05 mM
7 | CCC[C@H]1CC[C@@H]2CC[C@@H](CCCCCC(C)=O)N21 | 0.83 mM
8 | CCCC[C@H]1CCCC2CC[C@@H](CCCC)N21 (stereo partly drawn) | 0.37 mM

— ChEMBL document CHEMBL1132916, “Total synthesis of pyrrolizidines 223H', 239K', 265H', and 267H' found in Madagascan frogs (Mantella) and their affinities for nicotinic acetylcholine receptor” (Bioorg Med Chem Lett, 2000)
